Source: patent publication US8802679B2, “Glycine compound” (Astellas Pharma Inc., priority 2009, dated 2014)
Counter-ions that a name gives are not always drawn.

What was measured:
[1] = test system: VAP-1 enzyme activity in plasma; assay: Plasma VAP-1 enzyme activity after oral administration to rats (radio-enzyme assay); assay type: in vivo, Wistar male rats; conditions: rat, oral 1 mg/kg; for Inhibition Ratio (%) of plasma VAP-1 activity, 1 h: 1 h after administration; for Inhibition Ratio (%) of plasma VAP-1 activity, 3 h: 3 h after administration; for Inhibition Ratio (%) of plasma VAP-1 activity, 6 h: 6 h after administration; for Inhibition Ratio (%) of plasma VAP-1 activity, 12 h: 12 h after administration
Protocol: Eight-week to twelve-week Wistar male rats were fasted for 20 hours, and orally administered with a test drug (1 mg/1 kg). Heparin blood collection from the tail vein was performed immediately before the administration, and at 1 h, 3 h, 6 h, and 12 h after the administration. The resulting blood was subjected to centrifugation at 14000 rpm for 5 minutes to separate plasma, and the VAP-1 enzyme activity in the resulting plasma was measured by a radio-enzyme assay method.
For the radio-enzyme assay method, ^14C-benzylamine which is a synthetic substrate (10 μM) was reacted with the resulting plasma at 37° C., and the resulting metabolite was extracted with a mixture of toluene/ethyl acetate. The radioactivity was measured and taken as a VAP-1 enzyme activity in the plasma. The effect of the test drug was calculated from the ratio (%) of the VAP-1 activity after the administration of the test drug relative to the VAP-1 activity in the plasma immediately before the administration (100%).

[2] = target: rat VAP-1 enzyme (SSAO) (Rattus norvegicus (Rat), UniProt O08590); assay: Inhibitory effect on rat VAP-1 enzyme (SSAO) activity, radiochemistry-enzymatic assay with 14C-benzylamine; assay type: biochemical; conditions: enzyme from CHO cells expressing rat VAP-1; 14C-benzylamine 1×10^−5 mol/L
Sequence of rat VAP-1 enzyme (SSAO) (O08590 whole entry): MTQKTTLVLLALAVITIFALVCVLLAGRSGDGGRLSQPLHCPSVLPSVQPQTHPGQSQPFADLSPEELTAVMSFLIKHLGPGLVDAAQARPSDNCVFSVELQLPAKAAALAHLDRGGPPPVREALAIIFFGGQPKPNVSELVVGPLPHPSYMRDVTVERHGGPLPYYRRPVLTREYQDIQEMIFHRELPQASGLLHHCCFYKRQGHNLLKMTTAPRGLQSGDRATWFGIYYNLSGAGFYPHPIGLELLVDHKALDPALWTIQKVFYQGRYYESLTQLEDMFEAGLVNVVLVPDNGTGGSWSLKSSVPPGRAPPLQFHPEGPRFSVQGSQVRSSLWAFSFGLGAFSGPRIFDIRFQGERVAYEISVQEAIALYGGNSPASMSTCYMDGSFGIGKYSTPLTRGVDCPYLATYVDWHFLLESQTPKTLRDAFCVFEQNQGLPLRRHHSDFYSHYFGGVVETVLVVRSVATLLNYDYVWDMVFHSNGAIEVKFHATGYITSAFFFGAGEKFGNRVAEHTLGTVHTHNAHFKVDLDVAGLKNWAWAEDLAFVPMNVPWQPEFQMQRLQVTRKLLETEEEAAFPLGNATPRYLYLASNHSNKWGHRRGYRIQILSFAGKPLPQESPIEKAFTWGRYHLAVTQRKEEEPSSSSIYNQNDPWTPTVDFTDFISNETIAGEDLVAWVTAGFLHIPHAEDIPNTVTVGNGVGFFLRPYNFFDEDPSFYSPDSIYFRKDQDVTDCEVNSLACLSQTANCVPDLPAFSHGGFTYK
Protocol: Inhibitory Effect of Compound on Rat VAP-1 Enzyme (SSAO) Activity
(§1) A rat VAP-enzyme 1 (SSAO) activity was measured by a radiochemistry-enzymatic assay using ^14C-benzylamine as an artificial substrate. An enzyme suspension prepared from CHO (Chinese Hamster Ovary) cells stably expressing a rat VAP-enzyme 1 (SSAO) was preincubated with the compound of the present invention in a 96-well microplate at room temperature for 30 minutes. Subsequently, the enzyme suspension was incubated with ^14C-benzylamine (a final concentration of 1×10^−5 mol/L) to a final volume of […] at 37° C. for 1 hour. The enzymatic reaction was stopped by the addition of 2 mol/L (50 μL) of citric acid. The oxidation products were extracted directly in a 200-μL toluene scintillator, and the radioactivity was measured with a scintillation spectrometer.
(§2) In addition, the inhibitory activity is expressed in IC50 (nmol/L).

[3] = target: human VAP-1 enzyme (SSAO) (Homo sapiens (Human), UniProt Q16853); assay: Inhibitory effect on human VAP-1 enzyme (SSAO) activity, radiochemistry-enzymatic assay with 14C-benzylamine; assay type: biochemical; conditions: enzyme from CHO cells expressing human VAP-1; 14C-benzylamine 1×10^−5 mol/L
Sequence of human VAP-1 enzyme (SSAO) (Q16853 whole entry): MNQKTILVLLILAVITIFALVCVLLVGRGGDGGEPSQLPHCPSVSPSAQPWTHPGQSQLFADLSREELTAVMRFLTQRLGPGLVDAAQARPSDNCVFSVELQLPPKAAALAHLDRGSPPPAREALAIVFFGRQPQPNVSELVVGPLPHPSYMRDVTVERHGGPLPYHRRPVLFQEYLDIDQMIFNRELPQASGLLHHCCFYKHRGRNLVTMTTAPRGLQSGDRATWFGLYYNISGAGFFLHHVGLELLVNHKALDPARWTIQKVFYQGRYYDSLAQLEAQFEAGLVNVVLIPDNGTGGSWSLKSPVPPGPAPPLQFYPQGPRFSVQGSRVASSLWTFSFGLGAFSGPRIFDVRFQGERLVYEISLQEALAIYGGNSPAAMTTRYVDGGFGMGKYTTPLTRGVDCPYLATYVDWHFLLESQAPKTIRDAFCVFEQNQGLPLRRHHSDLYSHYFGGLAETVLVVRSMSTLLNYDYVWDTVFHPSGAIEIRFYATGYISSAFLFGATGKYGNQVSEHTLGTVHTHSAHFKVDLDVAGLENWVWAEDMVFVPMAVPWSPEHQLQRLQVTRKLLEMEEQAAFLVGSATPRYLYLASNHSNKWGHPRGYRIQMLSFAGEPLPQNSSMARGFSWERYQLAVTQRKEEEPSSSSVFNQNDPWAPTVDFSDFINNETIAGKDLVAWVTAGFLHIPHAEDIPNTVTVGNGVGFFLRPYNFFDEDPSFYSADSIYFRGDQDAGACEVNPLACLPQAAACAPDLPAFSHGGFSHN
Protocol: Inhibitory Effect of Compound on Human VAP-1 Enzyme (SSAO) Activity
as §1, with “human VAP-1 enzyme” for “rat VAP-enzyme 1”
as §2

Compound	Inhibition Ratio (%) of plasma VAP-1 activity, 1 h [1] [%]	Inhibition Ratio (%) of plasma VAP-1 activity, 3 h [1] [%]	Inhibition Ratio (%) of plasma VAP-1 activity, 6 h [1] [%]	Inhibition Ratio (%) of plasma VAP-1 activity, 12 h [1] [%]	IC50 [2] [nM]	IC50 [3] [nM]
Cc1cc(CCC(=O)O)cnc1N1CCN(c2ncc(-c3cccc(CN(C)C(=O)CN)c3)cn2)CC1 [Ex 66]	78	81	74	67		
CN(Cc1cccc(-c2cnc(N3CCCC3)nc2)c1)C(=O)CN [Ex 75]	78	58	38	24	3.6	49
C[C@@H]1CN(c2ncc(-c3cccc(CN(C)C(=O)CN)c3)cn2)C[C@H](C)O1 [Ex 78]	31	18	3	−4		
CN(Cc1cccc(-c2cnc(N3CCOC(CO)C3)nc2)c1)C(=O)CN (stereo not shown) [Ex 79]	24	21	15	14	34	66
C[C@@H]1CN(c2ccc(-c3cccc(CN(C)C(=O)CN)c3)cn2)C[C@H](C)O1 [Ex 80]	48	43	26	21	39	81
CN(Cc1cccc(-c2cnc(N3CCC(O)CC3)nc2)c1)C(=O)CN [Ex 84]	16	20	17		15	140
Cc1ncccc1N1CCN(c2ncc(-c3cccc(CN(C)C(=O)CN)c3)cn2)CC1 [Ex 91]	68	68	68	44	12	18
CN(Cc1cccc(-c2cnc(N3Cc4cccnc4C3)nc2)c1)C(=O)CN [Ex 95]	70	67	71	21	5.8	11
Cc1nc2c(s1)CN(c1ncc(-c3cccc(CN(C)C(=O)CN)c3)cn1)CC2 [Ex 102]	65	62	71	40	12	20
CN(Cc1cccc(-c2cnc(N3CCN(c4ncccc4Cl)CC3)nc2)c1)C(=O)CN [Ex 147]	70	79	75	66	44	72
CN(Cc1cccc(-c2cnc(N3CCC(c4cccnc4)CC3)nc2)c1)C(=O)CN [Ex 190]	42	48	41	11	19	23
CN(Cc1cccc(-c2cnc(N3CC=C(c4cccnc4)CC3)nc2)c1)C(=O)CN [Ex 191]	35	43	48	20	14	7
CN(Cc1cccc(-c2cnc(N3CCS(=O)(=O)CC3)nc2)c1)C(=O)CN [Ex 216]	25	−7	15	25	40	90
Cc1cccnc1N1CCN(c2ncc(-c3cccc(CN(C)C(=O)CN)c3)cn2)CC1 [Example 3, N-methyl-N-(3-{2-[4-(3-methylpyridin-2-yl)piperazin-1-yl]pyrimidin-5-yl}benzyl)glycinamide L-tartrate]	65	77	71	47	22	32
CN(Cc1cccc(-c2cnc(N3CC[C@H](F)C3)nc2)c1)C(=O)CN [Example 16]	83	83	53	42	7.4	49
Cc1cc(/C=C/C(=O)O)cnc1N1CCN(c2ncc(-c3cccc(CN(C)C(=O)CN)c3)cn2)CC1 [Example 19, (2E)-3-(6-{-4-[5-(3-{[glycyl(methyl)amino]methyl}phenyl)pyrimidin-2-yl]piperazin-1-yl}-5-methylpyridin-3-yl)acrylic acid dihydrochloride]	84	79	75	63	6.9	6.9
CN(Cc1cccc(-c2cnc(N3CCN(c4ncc(C(=O)O)cc4Cl)CC3)nc2)c1)C(=O)CN [Example 32]	68	70	58	45	10	18
CN(Cc1cccc(-c2cnc(N3CCN(c4ncc(/C=C/C(=O)O)cc4Cl)CC3)nc2)c1)C(=O)CN [Example 33]	84	87	97	83	21	31
CN(Cc1cccc(-c2cnc(N3CCC(N4CCOCC4)CC3)nc2)c1)C(=O)CN [Example 51]	30	37	43	32	21	48
CN(Cc1cccc(-c2cnc(N3CCOCC3)nc2)c1)C(=O)CN [Example 69, N-methyl-N-[3-(2-morpholin-4-ylpyrimidin-5-yl)benzyl]glycinamide L-tartrate]	72	56	39	24	9.8	32
CN(Cc1cccc(-c2cnc(N3CCN(c4ccc(C#N)nc4)CC3)nc2)c1)C(=O)CN [Example 261, N-(3-{2-[4-(6-cyanopyridin-3-yl)piperazin-1-yl]pyrimidin-5-yl}benzyl)-N-methylglycinamide L-tartrate]	36	44	45	32	21	17
CN(Cc1cccc(-c2cnc(N3CCN(c4ccc(C(=O)O)cc4Cl)CC3)nc2)c1)C(=O)CN [Example 263, 3-chloro-4-{4-[5-(3-{[glycyl(methyl)amino)methyl}phenyl)pyrimidin-2-yl]piperazin-1-yl}benzoic acid dihydrochloride]	97	95	80	75	15	25
